According to patent publication US5073551A, “Cephalosporin compounds” (Sagami Chemical Research Center, priority 1988, dated 1991):
In brackets after ≈: the same amount, converted by molar mass. Where two headings read alike, the source gives them in different places.

Assays:
S. aureus 209 P-JC = assay: In-vitro antibacterial activity test, minimum growth inhibitory concentration (MIC), S. aureus; type: cell-based; conditions: Staphylococcus aureus, 209PJC, read-out: Minimum growth inhibitory concentration
P. mirabilis IFO 3849 = assay: In-vitro antibacterial activity test, minimum growth inhibitory concentration (MIC), P. mirabilis; type: cell-based; conditions: Proteus mirabilis
[1] = In-vivo absorption test, serum concentration after oral administration (bioassay); parameters: species or system Wistar type rat (male); conditions: 50 mg/kg, fasted male Wistar rat, bioassay with Bacirus cereus S1101, read-out: Blood concentration / Serum concentration; for concentration at 1 h: 1 hr after oral administration; for concentration at 2 h: 2 hr after oral administration; for concentration at 4 h: 4 hr after oral administration
[2] = IFO3849, P. mirabilis IFO 3849, read-out: Minimum growth inhibitory concentration

SMILES	MIC (S. aureus 209 P-JC) [µg/mL]	MIC (P. mirabilis IFO 3849; IFO3849, read-out: Minimum growth inhibitory concentration) [µg/mL]	concentration at 1 h [1] [ng/mL]	concentration at 2 h [1] [ng/mL]	concentration at 4 h [1] [ng/mL]	MIC (S. aureus 209 P-JC; S. aureus 209 P-JC) [µg/mL]	MIC (P. mirabilis IFO 3849; [2]) [µg/mL]
Nc1nc(/C(=N/O)C(=O)NC2C(=O)N3C(C(=O)[O-])=C(/C=C\c4csnn4)CS[C@H]23)cs1.[Na+] (stereo partly shown)	≤ 0.025	0.1	4800	6000	6000	–	–
CCOC(=O)OC(C)OC(=O)C1=C(/C=C\c2csnn2)CSC2C(NC(=O)/C(=N\O)c3csc(N)n3)C(=O)N12 (racemic) [Example 22, DL-1-ethoxycarbonyloxyethyl 7-[(Z)-(2-aminothiazol-4-yl)-2-hydroxyiminoacetamido]-3-[(Z)-2-(1,2,3-thiadiazol-4-yl)vinyl]-3-cephem-4-carboxylate]	–	–	26600	37800	26700	–	–
CC(=O)OC(C)OC(=O)C1=C(/C=C\c2csnn2)CSC2C(NC(=O)/C(=N\O)c3csc(N)n3)C(=O)N12 (racemic) [Example 23, DL-1-acetyloxyethyl 7-[(Z)-2-(2-aminothiazol-4-yl)-2-hydroxyiminoacetamido]-3-[(Z)-2-(1,2,3-thiadiazol-4-yl)vinyl]-3-cephem-4-carboxylate]	–	–	72100	56600	33400	–	–
C=CC1=C(C(=O)O)N2C(=O)C(NC(=O)/C(=N\OCC(=O)O)c3csc(N)n3)C2SC1 (stereo not shown) [A, reference compound]	–	–	–	–	–	12.5 (≈ 27.6 µM)	≤ 0.025
Cc1nnsc1/C=C\C1=C(C(=O)[O-])N2C(=O)C(NC(=O)/C(=N\O)c3csc(N)n3)[C@H]2SC1.[Na+] (stereo partly shown) [Example 14, sodium 7-[(Z)-2-(2-aminothiazol-4-yl)-2-hydroxyiminoacetamido]-3-[(Z)-2-(4-methyl-1,2,3-thiadiazol-5-yl)vinyl]-3-cephem-4-carboxylate]	–	–	–	–	–	0.1	0.39
Cc1snnc1/C=C\C1=C(C(=O)[O-])N2C(=O)C(NC(=O)/C(=N\O)c3csc(N)n3)[C@H]2SC1.[Na+] (stereo partly shown) [Example 18, sodium 7-[(Z)-2-(2-aminothiazol-4-yl)-2-hydroxyiminoacetamido]-3-[(Z)-2-(5-methyl-1,2,3-thiadiazol-4-yl)vinyl]-3-cephem-4-carboxylate]	–	–	–	–	–	0.2	0.39
CC(C)(C)C(=O)OCOC(=O)C1=C(/C=C\c2csnn2)CS[C@@H]2C(NC(=O)/C(=N\O)c3csc(N)n3)C(=O)N12 (stereo partly shown) [Example 19, pivalyloxymethyl 7-[(Z)-(2-aminothiazol-4-yl)-2-hydroxyiminoacetamido]-3-[(Z)-2-(1,2,3-thiadiazol-4-yl)vinyl]-3-cephem-4-carboxylate]	–	–	11300	9800	5800	–	–
Nc1nc(/C(=N/O)C(=O)NC2C(=O)N3C(C(=O)O)=C(/C=C\c4cnns4)CSC23)cs1 (stereo not shown) [Example 21]	–	–	–	–	–	0.2 (≈ 0.417 µM)	0.39 (≈ 0.813 µM)
